Results as given in patent US6358885B1, “Substituted phenylheterocyclic herbicides” (Mississippi State University, priority 1992, dated 2002).

Assays:
Assay in all cases: Test G preemergence/postemergence greenhouse plant response rating 0 to 100
alfalfa = type: in vivo, Medicago ativa; settings: 0 to 100 scale
Excerpt: (§1) Seeds, rhizomes, or plant parts of alfalfa (Medicago ativa), annual bluegrass (Poa annua), bermudagrass (Cynodon dactylon), broadleaf signalgrass (Brachiaria plantaginea), common purslane (Portulaca oleracea), common ragweed (Ambrosia elatior), […] (Paspalum dilatatum), goosegrass (Eleusine indica), guineagrass (Panicum maximum), […] exaltata), johnsongrass (Sorghum halepense), large crabgrass (Digitaria sanguinalis), peanut (Arachis hypoagaea), pitted morningglory (Ipomoea lacunosa), purple nutsedge (Cyperus rotundus), sandbur (Cenchrus echinatus), smooth crabgrass (Digitaria ischaemum) and yellow nutsedge (Cyperus esculentus) were planted into greenhouse pots containing greenhouse planting medium. Each pot contained only one plant species. The test compound was dissolved in a non-phytotoxic solvent and applied preemergence and/or postemergence to the plants. Preemergence applications were made within one day of planting the seeds or plant parts. Postemergence applications were applied when the plants were in the two to four leaf stage (three to twenty cm). Test chemicals were dissolved in a non-phytotoxic solvent and applied preemergence and postemergence to the plants. Untreated control plants and treated plants were placed in the greenhouse and visually evaluated for injury at 13 to 21 days after herbicide application. […] A dash (-) response indicates no test result.

annual bluegrass = type: in vivo, Poa annua; settings: 0 to 100 scale
Excerpt: as §1

bermudagrass = type: in vivo, Cynodon dactylon; settings: 0 to 100 scale
Excerpt: as §1

common purslane = type: in vivo, Portulaca oleracea; settings: 0 to 100 scale
Excerpt: as §1

common ragweed = type: in vivo, Ambrosia elatior; settings: 0 to 100 scale
Excerpt: as §1

dallisgrass = type: in vivo, Paspalum dilatatum; settings: 0 to 100 scale
Excerpt: as §1

goosegrass = type: in vivo, Eleusine indica; settings: 0 to 100 scale
Excerpt: as §1

guineagrass = type: in vivo, Panicum maximum; settings: 0 to 100 scale
Excerpt: as §1

itchgrass = type: in vivo, Rottboellia exaltata; settings: 0 to 100 scale
Excerpt: as §1

johnsongrass = type: in vivo, Sorghum halepense; settings: 0 to 100 scale
Excerpt: as §1

large crabgrass = type: in vivo, Digitaria sanguinalis; settings: 0 to 100 scale
Excerpt: as §1

peanut = type: in vivo, Arachis hypoagaea; settings: 0 to 100 scale
Excerpt: as §1

pitted morningglory = type: in vivo, Ipomoea lacunosa; settings: 0 to 100 scale
Excerpt: as §1

purple nutsedge = type: in vivo, Cyperus rotundus; settings: Rate 125 g/ha, 0 to 100 scale
Excerpt: as §1

sandbur = type: in vivo, Cenchrus echinatus; settings: 0 to 100 scale
Excerpt: as §1

smooth crabgrass = type: in vivo, Digitaria ischaemum; settings: 0 to 100 scale
Excerpt: as §1

yellow nutsedge = type: in vivo, Cyperus esculentus; settings: Rate 125 g/ha, 0 to 100 scale
Excerpt: as §1

CCS(=O)(=O)Oc1cc(-c2nn3c(c2Cl)CCCC3)c(F)cc1Cl [Compound 25]
Plant response rating, Alfalfa Var. (alfalfa; POSTEMERGENCE, Rate 125 g/ha): 0 | Plant response rating, Alfalfa Var. (alfalfa; POSTEMERGENCE, Rate 250 g/ha): 0 | Plant response rating, Alfalfa Var. (alfalfa; PREEMERGENCE, Rate 125 g/ha): 0 | Plant response rating, Alfalfa Var. (alfalfa; PREEMERGENCE, Rate 250 g/ha): 0 | Plant response rating, Ann Bluegrass (annual bluegrass; POSTEMERGENCE, Rate 125 g/ha): 0 | Plant response rating, Ann Bluegrass (annual bluegrass; POSTEMERGENCE, Rate 250 g/ha): 0 | Plant response rating, Ann Bluegrass (annual bluegrass; PREEMERGENCE, Rate 125 g/ha): 0 | Plant response rating, Ann Bluegrass (annual bluegrass; PREEMERGENCE, Rate 250 g/ha): 0 | Plant response rating, Bermudagrass (bermudagrass; POSTEMERGENCE, Rate 125 g/ha): 0 | Plant response rating, Bermudagrass (bermudagrass; POSTEMERGENCE, Rate 250 g/ha): 0 | Plant response rating, Bermudagrass (bermudagrass; PREEMERGENCE, Rate 125 g/ha): 0 | Plant response rating, Bermudagrass (bermudagrass; PREEMERGENCE, Rate 250 g/ha): 0 | Plant response rating, Cmn Purslane (common purslane; POSTEMERGENCE, Rate 125 g/ha): 100 | Plant response rating, Cmn Purslane (common purslane; POSTEMERGENCE, Rate 250 g/ha): 60 | Plant response rating, Cmn Purslane (common purslane; PREEMERGENCE, Rate 125 g/ha): 0 | Plant response rating, Cmn Purslane (common purslane; PREEMERGENCE, Rate 250 g/ha): 0 | Plant response rating, Cmn Ragweed (common ragweed; POSTEMERGENCE, Rate 125 g/ha): 50 | Plant response rating, Cmn Ragweed (common ragweed; POSTEMERGENCE, Rate 250 g/ha): 0 | Plant response rating, Cmn Ragweed (common ragweed; PREEMERGENCE, Rate 125 g/ha): 0 | Plant response rating, Cmn Ragweed (common ragweed; PREEMERGENCE, Rate 250 g/ha): 0 | Plant response rating, Dallisgrass (dallisgrass; POSTEMERGENCE, Rate 125 g/ha): 0 | Plant response rating, Dallisgrass (dallisgrass; POSTEMERGENCE, Rate 250 g/ha): 0 | Plant response rating, Dallisgrass (dallisgrass; PREEMERGENCE, Rate 125 g/ha): 0 | Plant response rating, Dallisgrass (dallisgrass; PREEMERGENCE, Rate 250 g/ha): 0 | Plant response rating, Goosegrass (goosegrass; POSTEMERGENCE, Rate 125 g/ha): 0 | Plant response rating, Goosegrass (goosegrass; POSTEMERGENCE, Rate 250 g/ha): 0 | Plant response rating, Goosegrass (goosegrass; PREEMERGENCE, Rate 125 g/ha): 0 | Plant response rating, Goosegrass (goosegrass; PREEMERGENCE, Rate 250 g/ha): 0 | Plant response rating, Guineagrass (guineagrass; POSTEMERGENCE, Rate 125 g/ha): 0 | Plant response rating, Guineagrass (guineagrass; POSTEMERGENCE, Rate 250 g/ha): 0 | Plant response rating, Guineagrass (guineagrass; PREEMERGENCE, Rate 125 g/ha): 0 | Plant response rating, Guineagrass (guineagrass; PREEMERGENCE, Rate 250 g/ha): 0 | Plant response rating, Itchgrass (itchgrass; POSTEMERGENCE, Rate 125 g/ha): 0 | Plant response rating, Itchgrass (itchgrass; POSTEMERGENCE, Rate 250 g/ha): 0 | Plant response rating, Itchgrass (itchgrass; PREEMERGENCE, Rate 125 g/ha): 0 | Plant response rating, Itchgrass (itchgrass; PREEMERGENCE, Rate 250 g/ha): 0 | Plant response rating, Johnsongrass (johnsongrass; POSTEMERGENCE, Rate 125 g/ha): 0 | Plant response rating, Johnsongrass (johnsongrass; POSTEMERGENCE, Rate 250 g/ha): 0 | Plant response rating, Johnsongrass (johnsongrass; PREEMERGENCE, Rate 125 g/ha): 0 | Plant response rating, Johnsongrass (johnsongrass; PREEMERGENCE, Rate 250 g/ha): 0 | Plant response rating, Large Crabgrass (large crabgrass; POSTEMERGENCE, Rate 125 g/ha): 0 | Plant response rating, Large Crabgrass (large crabgrass; POSTEMERGENCE, Rate 250 g/ha): 0 | Plant response rating, Large Crabgrass (large crabgrass; PREEMERGENCE, Rate 125 g/ha): 0 | Plant response rating, Large Crabgrass (large crabgrass; PREEMERGENCE, Rate 250 g/ha): 0 | Plant response rating, Peanuts (peanut; POSTEMERGENCE, Rate 125 g/ha): 0 | Plant response rating, Peanuts (peanut; POSTEMERGENCE, Rate 250 g/ha): 0 | Plant response rating, Peanuts (peanut; PREEMERGENCE, Rate 125 g/ha): 0 | Plant response rating, Peanuts (peanut; PREEMERGENCE, Rate 250 g/ha): 0 | Plant response rating, Pit Morninglory (pitted morningglory; POSTEMERGENCE, Rate 125 g/ha): 0 | Plant response rating, Pit Morninglory (pitted morningglory; POSTEMERGENCE, Rate 250 g/ha): 0 | Plant response rating, Pit Morninglory (pitted morningglory; PREEMERGENCE, Rate 125 g/ha): 0 | Plant response rating, Pit Morninglory (pitted morningglory; PREEMERGENCE, Rate 250 g/ha): 0 | Plant response rating, Purple Nutsedge (purple nutsedge; POSTEMERGENCE): 0 | Plant response rating, Purple Nutsedge (purple nutsedge; PREEMERGENCE): 0 | Plant response rating, S. Sandbur (sandbur; POSTEMERGENCE, Rate 125 g/ha): 0 | Plant response rating, S. Sandbur (sandbur; POSTEMERGENCE, Rate 250 g/ha): 0 | Plant response rating, S. Sandbur (sandbur; PREEMERGENCE, Rate 125 g/ha): 0 | Plant response rating, S. Sandbur (sandbur; PREEMERGENCE, Rate 250 g/ha): 0 | Plant response rating, Smooth Crabgras (smooth crabgrass; POSTEMERGENCE, Rate 125 g/ha): 0 | Plant response rating, Smooth Crabgras (smooth crabgrass; POSTEMERGENCE, Rate 250 g/ha): 0 | Plant response rating, Smooth Crabgras (smooth crabgrass; PREEMERGENCE, Rate 125 g/ha): 0 | Plant response rating, Smooth Crabgras (smooth crabgrass; PREEMERGENCE, Rate 250 g/ha): 0 | Plant response rating, Yellow Nutsedge (yellow nutsedge; POSTEMERGENCE): 0 | Plant response rating, Yellow Nutsedge (yellow nutsedge; PREEMERGENCE): 0
